Source: BindingDB's records for doi:10.1016/j.ejmech.2018.11.015 (Fudan University, 2019)

Test: Inhibition of PB2 in Influenza A virus (A/Weiss/1943(H1N1)) infected in MDCK cells assessed as reduction in virus induced cell death after 5 days by CCK-8 assay

Row | SMILES | EC50
1 | O=C(O)[C@H]1C2CCC(CC2)[C@@H]1Nc1nc(-c2c[nH]c3ncc(F)cc23)ncc1F | 0.6 nM
2 | O=C(O)[C@H]1C2CCC(CC2)[C@@H]1N1CCOc2cnc(-c3c[nH]c4ncc(F)cc34)nc21 | 24 nM
3 | Cn1cc(F)c2c(N[C@H]3C4CCC(CC4)[C@@H]3C(=O)O)nc(-c3c[nH]c4ncc(F)cc34)nc21 | 9.6 nM
4 | O=C(O)[C@H]1C2CCC(CC2)[C@@H]1Nc1nc(-c2c[nH]c3ncc(F)cc23)nc2c1CCS2 | 2.8 nM
5 | N#Cc1cn([C@H]2C3CCC(CC3)[C@@H]2C(=O)O)c2nc(-c3c[nH]c4ncc(F)cc34)ncc12 | 70 nM
6 | N#Cc1csc2c(N[C@H]3C4CCC(CC4)[C@@H]3C(=O)O)nc(-c3c[nH]c4ncc(F)cc34)nc12 | 4 nM
7 | O=C(O)[C@H]1C2CCC(CC2)[C@@H]1Nc1nc(-c2c[nH]c3ncc(F)cc23)nc2c1S(=O)(=O)CC2 | 110 nM
8 | O=C(O)[C@H]1C2CCC(CC2)[C@@H]1Nc1nc(-c2c[nH]c3ncc(F)cc23)nc2c1CS(=O)(=O)C2 | 2000 nM
9 | O=C(O)[C@H]1C2CCC(CC2)[C@@H]1Nc1nc(-c2n[nH]c3ncc(F)cc23)nc2ccsc12 | 0.5 nM
10 | O=C(O)[C@H]1C2CCC(CC2)[C@@H]1Nc1nc(-c2n[nH]c3ncc(F)cc23)nc2sccc12 | 0.06 nM
11 | O=C(O)[C@H]1C2CCC(CC2)[C@@H]1Nc1nc(-c2n[nH]c3ncc(F)cc23)nc2c1SCC2 | 0.2 nM
12 | O=C(O)[C@H]1C2CCC(CC2)[C@@H]1Nc1nc(-n2ccc3ncc(F)cc32)ncc1F | 230 nM
13 | O=C(O)[C@H]1C2CCC(CC2)[C@@H]1Nc1nc(-c2c[nH]c3ccc(F)cc23)ncc1F | 220 nM
14 | O=C(O)[C@H]1C2CCC(CC2)[C@@H]1n1cnc2cnc(-c3c[nH]c4ncc(F)cc34)nc21 | 190 nM
15 | O=C(O)[C@H]1C2CCC(CC2)[C@@H]1Nc1nc(-c2c[nH]c3ncc(F)cc23)nc2cccc(F)c12 | 20 nM
16 | O=C(O)[C@H]1C2CCC(CC2)[C@@H]1Nc1nc(-c2c[nH]c3ncc(F)cc23)nc2cccnc12 | 14 nM
17 | Cc1cccc2nc(-c3c[nH]c4ncc(F)cc34)nc(N[C@H]3C4CCC(CC4)[C@@H]3C(=O)O)c12 | 11 nM

Row | SMILES | EC50
18 | O=C(O)[C@H]1C2CCC(CC2)[C@@H]1Nc1nc(-c2c[nH]c3ncc(F)cc23)nc2nccnc12 | 13 nM
19 | O=C(O)[C@H]1C2CCC(CC2)[C@@H]1Nc1nc(-c2c[nH]c3ncc(F)cc23)nc2c1CCCC2 | 12 nM
20 | O=C(O)[C@H]1C2CCC(CC2)[C@@H]1Nc1nc(-c2c[nH]c3ncc(F)cc23)nc2c1CCC2 | 5.5 nM
21 | O=C(O)[C@H]1C2CCC(CC2)[C@@H]1Nc1nc(-c2c[nH]c3ncc(F)cc23)nc2ccoc12 | 5.3 nM
22 | O=C(O)[C@H]1C2CCC(CC2)[C@@H]1Nc1nc(-c2c[nH]c3ncc(F)cc23)nc2scnc12 | 3 nM
23 | O=C(O)[C@H]1C2CCC(CC2)[C@@H]1Nc1nc(-c2c[nH]c3ncc(F)cc23)nc2[nH]ccc12 | 4.5 nM
24 | Cc1cnc2c(N[C@H]3C4CCC(CC4)[C@@H]3C(=O)O)nc(-c3c[nH]c4ncc(F)cc34)nc2c1 | 11 nM
25 | O=C(O)[C@H]1C2CCC(CC2)[C@@H]1Nc1nc(-c2c[nH]c3ncc(F)cc23)nc2cc(F)cnc12 | 10 nM
26 | O=C(O)[C@H]1C2CCC(CC2)[C@@H]1Nc1nc(-c2c[nH]c3ncc(F)cc23)nc2ccsc12 | 0.5 nM
27 | O=C(O)[C@H]1C2CCC(CC2)[C@@H]1Nc1nc(-c2c[nH]c3ncc(F)cc23)nc2sccc12 | 0.2 nM
28 | O=C(O)[C@H]1C2CCC(CC2)[C@@H]1Nc1nc(-c2c[nH]c3ncc(F)cc23)nc2c1SCC2 | 0.4 nM
29 | O=C(O)[C@H]1C2CCC(CC2)[C@@H]1Nc1nc(-c2c[nH]c3ncc(F)cc23)nc2cscc12 | 1.4 nM
30 | O=C(O)[C@H]1C2CCC(CC2)[C@@H]1Nc1nc(-c2c[nH]c3ncc(F)cc23)nc2cc(C(F)F)sc12 | 10 nM
31 | O=C(O)[C@H]1C2CCC(CC2)[C@@H]1n1ccc2cnc(-c3c[nH]c4ncc(F)cc34)nc21 | 12 nM
32 | O=C(O)[C@H]1C2CCC(CC2)[C@@H]1Nc1nc(-c2c[nH]c3ncc(F)cc23)nc2c1CSC2 | 2.6 nM
33 | Cc1cccc2nc(N[C@H]3C4CCC(CC4)[C@@H]3C(=O)O)nc(-c3c[nH]c4ncc(F)cc34)c12 | 450 nM
